Data on two compounds can be found in patent US20120329767A1, “Methods and Compositions for Treating Cancer” (priority 2010, published 2012).

Where two headings read alike, the source gives them in different places.

For data set [1], the system named is HCT-116 cells. The experiment in a line: MTT test on HCT116 colon cancer cells. The following applies: MTT method, Table 2. In kind it is cell-based, human.
Description: A human glioblastoma line (A172) and a colon cancer line (HCT116) were used to test the cytostatic effects of the compounds according to the invention. Cisplatin was chosen as cytotoxic agent for comparison. As first approach, a MTT test was used to measure the activity of a mitochondrial enzyme which gives an estimation of the number of cells.
The experiments were performed under a vertical laminar flow hood. The cell growth medium was composed of DMEM (Dulbecco's Modified Eagle's Medium), HEPES, 10% FCS (Foetal Calf Serum), 5% PS (Penicillin, Streptomycin) and was stored at +4° C., and PBS (Phosphate Buffer Saline, pH=7.4). […] MTT (4,5-dimethylthiazol-2-diphenyltetrazolium bromide) is a yellow solid produced by Aldrich. […]
(§3) When they were sufficiently numerous (70% confluence) they were washed in PBS at ambient temperature then mixed with 1.5 mL of Trypsin-EDTA to detach them from the Petri dish. […] After 48 hours, the medium was replaced by a MTT solution at 37° in the medium, which was placed in the incubator for at least one hour or until violet crystals derived from the complexing of MTT were formed quantitatively at the bottom of each well. […] The optical density of the solutions obtained was read off. […]
The IC50 values (μM) were determined for each of the lines and compared with the values obtained for a reference ruthenium derived compound.
The test system of data set [2] is 3LL. The experiment in a line: MTT test on 3LL lung cancer line. In kind it is cell-based. The following applies: MTT method.
Data set [3] deals with N2A. The experiment in a line: MTT test on N2A neuroblastoma line. To be noted: MTT method. In kind it is cell-based.
Data set [4] relates to histone H2AX. Nature of the data set: Phosphorylation of histone H2AX, Western blot. In kind it is cell-based, human. To be noted: A172 tumour cells treated 6 hours at 5 μM and 10 μM, versus reference compound. An excerpt:
(§1) To determine via which mechanisms of action compounds 8 and 9 could lead to slowing of cell proliferation or to cell death, the activation of two specific markers, the expression of the CHOP protein and phosphorylation of the histone H2AX on the serine site […] were monitored. The CHOP protein has pro-apoptotic properties (induction of cell death). Phosphorylation of the H2AX histone is a marker of DNA damage which leads to activation of p53, a protein having pro-apoptotic properties or the property of slowing cell proliferation.
(§2) In these experiments, the tumour cells A172 were treated for 6 hours with the compounds at two concentrations (5 μM and 10 μM). After the 6 hour treatment time, the cells were lysed and […] of soluble proteins were separated on 12% polyacrylamide gel. After migration, the proteins were transferred onto nitrocellulose using the Western blot technique. The proteins CHOP and H2AX were then detected using specific primary antibodies, themselves recognized by corresponding secondary antibodies whose peroxidase activity was identified using an ECL kit.

Data set [5] deals with melanoma model F10B16 implanted in Black-6 mice. Nature of the data set: Tumour growth in in vivo melanoma model F10B16. The following applies: F10B16 melanoma in Black-6 mice, twice a week at 7.5 μmol/kg. The source says: To determine the anti-cancer potential of these molecules, we analyzed the effects of compound 8 and compound 9 on tumour growth, using the in vivo melanoma model F10B16 implanted in Black-6 mice. […] The chronic treatments (twice a week at 7.5 μmol/kg) in mice having tumours led to a reduction in tumour growth. This reduction in tumour growth (treated tumour volume/non-treated tumour volume: T/C) was of the order of 80% for compound 8 and 60% for compound 9 (see Table 4 and FIGS. 6 and 7).
In these experiments, the […] cells (200 000 cells) were implanted sub-cutaneously in Black-6 mice aged 8 weeks. Groups of 6 mice per condition were formed. The treatments were started when the tumours were palpable with a volume of the order of 100 mm^3.

The test system of data set [6] is Fadu. The experiment in a line: MTT test on Fadu head & neck cancer line. In kind it is cell-based. To be noted: MTT method.
Data set [7] has as its system A2780. Nature of the data set: MTT test on A2780 ovarian cancer line. In kind it is cell-based. To be noted: MTT method.
Data set [8] deals with HCT116 cells. Nature of the data set: Cell cycle profile by FACS after propidium iodide staining. To be noted: HCT116 cells treated 48 h at 1 μM and 5 μM. In kind it is cell-based, human. The source says:
The effect of compounds 8 and 9 on the cell profile was studied using the FACS technique (Fluorescence Activated Cell Sorter i.e. the association of a flow cytometer and a cell sorter) after staining the cells with propidium iodide to visualize the quantity of cell DNA. These analyses allow visualization of the cell cycle phase at which the cells accumulate subsequent to treatment with the compounds of the invention, and possibly whether cell death by apoptosis has been induced.
In this experiment, the HCT116 cells were treated for 48 h at the indicated doses (1 μM and 5 μM). After a treatment time of 48 h, the cells were washed three times with PBS (phosphate buffer saline) and fixed in 90% ethanol. The cells were then stained with a solution of propidium iodide/RNase. The stained cells (10 000 per sample) were then counted using a FACScan flow cytometer and CellQuest software (Becton Dickinson) to determine the DNA content and the profile of the cell cycle.

In data set [9] the test system is U87. The experiment in a line: MTT test on U87 glioblastoma line. In kind it is cell-based. The following applies: MTT method.
In data set [10] the test system is Black-6 mice. To be noted: Black-6 mice aged 8 weeks, single dose, intraperitoneal, followed up over 15 days.
Source text: As comparison, the acute toxicity of the above-described reference compound is given.
In this experiment, the injections were given via intraperitoneal route with groups of 5 animals per dose. The weight and survival of the animals were followed up over 15 days.
The subject of data set [11] is CHOP protein. The experiment in a line: Expression of the CHOP protein, Western blot. In kind it is cell-based, human. To be noted: A172 tumour cells treated 6 hours at 5 μM and 10 μM, versus reference compound.
Source text: as §1, §2

Data set [12] concerns A-172 cells. Nature of the data set: MTT test on A172 glioblastoma cells. To be noted: 48 h treatment, A-172 glioblastoma cells, Table 1. In kind it is cell-based, human.
Description: Cisplatin was chosen as cytotoxic agent for comparison. As first approach, a MTT test was used to measure the activity of a mitochondrial enzyme which gives an estimation of the number of cells.
The experiments were performed under a vertical laminar flow hood. The cell growth medium was composed of DMEM (Dulbecco's Modified Eagle's Medium), HEPES, 10% FCS (Foetal Calf Serum), 5% PS (Penicillin, Streptomycin) and was stored at +4° C., and PBS (Phosphate Buffer Saline, pH=7.4). […] MTT (4,5-dimethylthiazol-2-diphenyltetrazolium bromide) is a yellow solid produced by Aldrich. It was placed in sterile aqueous solution at a concentration of 5 mg/ml and stored at +4° C. It was diluted to 10% in the cell culture medium when used as staining agent of the living cells.
as §3
Data set [13] has as its system Katto III. The experiment in a line: MTT test on Katto III pancreatic cancer line. In kind it is cell-based. To be noted: MTT method, Katto III gastric cancer.

Regarding `CC#[N+][Ru-4]123([c]4c(cc(C(=O)OC)cc4-c4cccc[n+]41)-c1cccc[n+]12)[n+]1cccc2ccc4ccc[n+]3c4c21.F[P-](F)(F)(F)(F)F` [Compound (8)], the IC50 was in the range of 1000 to 2000 nM in [1]; 1000 to 2000 nM in data set [2]; 1000 to 2000 nM in data set [3]; 1000 to 2000 nM in data set [6]; 1000 to 2000 nM in data set [7]; 1000 to 2500 nM in data set [9]. Further, the IC50 in data set [12] fell in the range of 1500 to 1900 nM; in data set [13], 1000 to 2000 nM. Further, the “Phosphorylation of the histone H2AX on the serine site 137” value in data set [4] is “more efficient”. For the same compound, the “T/C (reduction in tumour growth; treated tumour volume/non-treated tumour volume)” value in [5] (listed as Compound 8) is reported as 81%; in data set [5] (listed as compound 8), around 80%. In data set [8], the “Profile of the cell cycle” value is reported as “induce a halt in the cell cycle at phase G1 or cell death”. The compound further showed an LD50 in [10] of 22.5 µmol/kg. The “Induction of expression of the CHOP protein” value in data set [11] is “more efficient”.
Consider `CC#[N+][Ru-4]123([c]4c(cc(C)cc4-c4cccc[n+]41)-c1cccc[n+]12)[n+]1cccc2ccc4ccc[n+]3c4c21.F[P-](F)(F)(F)(F)F` [Compound (9)], for which the IC50 was 100 to 1000 nM in data set [1]; 100 to 1000 nM in [2]; 100 to 1000 nM in [3]; 100 to 1000 nM in [6]; 100 to 1000 nM in data set [7]; 1000 to 2000 nM in [9]. Besides, the figures for the IC50 in [12] and in data set [13] were 600 to 1000 nM and 100 to 1000 nM, respectively. The “Phosphorylation of the histone H2AX on the serine site 137” value in data set [4] was “more efficient”. Besides, the “T/C (reduction in tumour growth; treated tumour volume/non-treated tumour volume)” value in [5] (listed as Compound 9) is reported as 58%; in data set [5] (listed as compound 9), around 60%. Moreover, in data set [8], the “Profile of the cell cycle” value was “induce a halt in the cell cycle at phase G1 or cell death”. Besides, the LD50 in [10] (listed as Compound 9) and in data set [10] (listed as compound 9) was above 60 µmol/kg in each case. In data set [11], the “Induction of expression of the CHOP protein” value is “more efficient”.
